According to patent US20110312934A1, “2-ALKYL-6-CYCLOAMINO-3-(PYRIDIN-4-YL)IMIDAZO[1,2-B]-PYRIDAZINE DERIVATIVES, PREPARATION THEREOF, AND THERAPEUTIC APPLICATION THEREOF” (SANOFI-AVENTIS, priority 2008, published 2011):

Tests used:
[1] = molecular target: T1, casein kinase 1 epsilon (CK1 epsilon) (Homo sapiens, UniProt P49674); experiment: Filter-plate assay of ATP-33P, inhibition of phosphorylation of casein by CK1 epsilon; type: biochemical; conditions: ATP-33P filtration, cold ATP 10 μM final, 2 hours at ambient temperature, read-out: CK1 epsilon Cl50
T1 construct: Invitrogen Corporation (alternative)
T1 sequence (P49674 whole entry): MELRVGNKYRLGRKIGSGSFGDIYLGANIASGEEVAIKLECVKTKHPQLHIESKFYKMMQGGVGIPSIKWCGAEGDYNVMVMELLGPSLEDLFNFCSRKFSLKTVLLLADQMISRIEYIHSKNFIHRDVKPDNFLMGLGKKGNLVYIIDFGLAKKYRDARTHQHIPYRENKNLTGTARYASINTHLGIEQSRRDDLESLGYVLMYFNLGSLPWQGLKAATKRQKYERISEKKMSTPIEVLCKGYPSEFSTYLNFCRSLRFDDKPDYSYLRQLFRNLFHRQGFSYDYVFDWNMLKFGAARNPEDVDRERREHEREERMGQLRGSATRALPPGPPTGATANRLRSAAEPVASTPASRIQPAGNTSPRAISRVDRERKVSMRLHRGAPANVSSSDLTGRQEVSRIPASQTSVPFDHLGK
Experimental: The capacity of the compounds of the invention to inhibit the phosphorylation of casein by casein kinase 1 epsilon and delta may be evaluated according to the procedure described in US 2005/0131012.
Filter-Plate Assay of ATP-^33P for the Screening of CK1 Epsilon Inhibitors:
The effect of the compounds on inhibition of the phosphorylation of casein by the enzyme casein kinase 1 epsilon (CK1 epsilon) is measured, using a casein assay with filtration of ATP-^33P in vitro.
Casein kinase 1 epsilon (0.58 mg/ml) is obtained via fermentation and purification processes performed according to methods that are well known to those skilled in the art, or may also be obtained from Invitrogen Corporation™ (human CK1 epsilon).
The compounds are tested at five different concentrations so as to generate IC50 values, i.e. the concentration at which a compound is capable of inhibiting the enzymatic activity by 50%, or alternatively the percentage of inhibition at a concentration of 10 micromolar.
“U”-bottomed Falcon plates are prepared by placing 5 μl of solutions of the compounds according to the invention at concentrations of 10, 1, 0.1, 0.01 or 0.001 μM in different wells. The solutions of the compounds according to the invention at these various concentrations are prepared by diluting in a test buffer (50 mM Tris, pH 7.5, […], 2 mM DTT and 1 mM EGTA) a stock solution in DMSO at a concentration of 10 mM. Next, 5 μl of dephosphorylated casein are added to a final concentration of 0.2 μg/μl, 20 μl of CK1 epsilon to a final concentration of 3 ng/μl, and 20 μl of ATP-^33P to a final concentration of 0.02 μCi/μl mixed with cold ATP (10 μM final—approximately 2×10^6 CPM per well). The final total test volume per well is equal to 50 μl.
The “U”-bottomed Falcon® test plate mentioned above is vortexed, and then incubated at ambient temperature for 2 hours. After 2 hours, the reaction is stopped by adding an ice-cold solution of 65 μl of ATP (2 mM) prepared in test buffer.
100 μl of the reaction mixture are then transferred from the “U”-bottomed Falcon® plate into Millipore® MAPH filter plates, preimpregnated with 25 μl of ice-cold 100% TCA. […]
The plates are left to dry overnight at ambient temperature. […] The radiation emitted by each well is then measured for 2 minutes in a Packard® Topcount NXT scintillation counter, in which the values of CPM/well are measured.
The percentage inhibition of the capacity of the enzyme to phosphorylate the substrate (casein) is determined for each concentration of compound tested. These inhibition data expressed as percentages are used to calculate the IC50 value for each compound compared with the controls.
The kinetic studies determined the KM value for ATP as being 21 μM in this test system.

[2] = molecular target: T2, human CK1 delta (Homo sapiens, UniProt P48730); experiment: FRET Z'Lyte kinase assay, CK1 delta; type: biochemical; conditions: peptide substrate SER/THR 11 2 μM, ATP 4 times the KM, read-out: CK1 delta Cl50
T2 construct: purchased Invitrogen Corporation PV3665
T2 sequence (P48730 whole entry): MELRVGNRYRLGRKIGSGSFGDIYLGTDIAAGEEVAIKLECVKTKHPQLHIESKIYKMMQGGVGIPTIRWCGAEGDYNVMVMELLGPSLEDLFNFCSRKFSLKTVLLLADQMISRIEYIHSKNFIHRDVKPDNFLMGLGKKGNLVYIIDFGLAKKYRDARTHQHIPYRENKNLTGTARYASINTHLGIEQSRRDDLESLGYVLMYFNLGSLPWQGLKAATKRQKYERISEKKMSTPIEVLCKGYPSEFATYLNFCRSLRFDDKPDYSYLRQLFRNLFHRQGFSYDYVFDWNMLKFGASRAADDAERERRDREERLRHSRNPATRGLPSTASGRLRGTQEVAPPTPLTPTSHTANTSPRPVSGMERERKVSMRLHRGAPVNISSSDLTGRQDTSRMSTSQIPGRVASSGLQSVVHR
Excerpt: The capacity of the compounds of the invention to inhibit the phosphorylation of casein by casein kinase 1 epsilon and delta may be evaluated using a FRET (Fluorescence Resonance Energy Transfer) fluorescence test with the aid of the Z'Lyte™ kinase assay Kit (reference PV3670; Invitrogen Corporation™) according to the manufacturer's instructions.
The casein kinases 1 used are obtained from Invitrogen Corporation (human CK1 epsilon PV3500 and human CK1 delta PV3665).
A peptide substrate, labelled at both ends with a fluorophore donor group (coumarin) and a fluorophore acceptor group (fluorescein), constituting a FRET system is phosphorylated in the presence of ATP by casein kinase 1 epsilon or delta in the presence of increasing concentrations of compounds of the invention.
The mixture is treated with a site-specific protease that specifically cleaves the peptide substrate to form two fluorescent fragments having a large fluorescence emission ratio.
The fluorescence observed is thus related to the capacity of the products of the invention to inhibit the phosphorylation of the peptide substrate by casein kinase 1 epsilon or casein kinase 1 delta. […]
The emitted fluorescence is measured at wavelengths of 445 and 520 nm (excitation at 400 nm).

Cc1nc2ccc(N3CCNCC3)nn2c1-c1ccncc1 [Compound 1, 2-Methyl-6-piperazin-1-yl-3-pyridin-4-yl-imidazo[1,2-b]pyridazine]
IC50 [1]: 57 nM
IC50 [2]: < 1 nM
melting point: 166 to 168 °C
